# Source: BindingDB's records for doi:10.1016/0960-894X(96)00231-4 (1996)
# Assays:
# [1] = Binding affinity at Dopamine D3 receptors in rat striatum by [3H]-spiperone displacement.
# [2] = target: D(2) dopamine receptor (Rattus norvegicus) (UniProt P61169); assay: Binding affinity at Dopamine D2 receptors in rat striatum by [3H]spiperone displacement.
# [3] = Stimulation of mitogenesis in Dopamine receptor D3 transfected CHO p-5 cells
# Chain of D(2) dopamine receptor (Rattus norvegicus) (P61169 whole entry, looked up): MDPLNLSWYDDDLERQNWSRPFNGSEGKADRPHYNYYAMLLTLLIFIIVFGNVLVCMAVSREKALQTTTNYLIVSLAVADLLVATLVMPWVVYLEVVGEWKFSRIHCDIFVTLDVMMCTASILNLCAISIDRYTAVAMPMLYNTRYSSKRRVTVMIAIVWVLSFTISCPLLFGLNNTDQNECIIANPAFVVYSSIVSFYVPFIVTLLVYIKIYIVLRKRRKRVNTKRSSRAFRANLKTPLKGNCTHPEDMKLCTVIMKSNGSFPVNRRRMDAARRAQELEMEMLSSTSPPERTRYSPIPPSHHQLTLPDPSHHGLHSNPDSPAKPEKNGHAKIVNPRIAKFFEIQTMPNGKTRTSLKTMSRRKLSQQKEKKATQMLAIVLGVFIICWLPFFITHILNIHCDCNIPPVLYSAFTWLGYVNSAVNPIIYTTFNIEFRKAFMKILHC
Compound,Ki [1],Ki [2],EC50 [3]
COc1ccccc1N1CCN(CCNC(=O)c2cc(Br)c3ccccc3c2OC)CC1 [4-Bromo-1-methoxy-naphthalene-2-carboxylic acid {2-[4-(2-methoxy-phenyl)-piperazin-1-yl]-ethyl}-amide],0.076 µM,0.303 µM,
COc1c(C(=O)NCCN2CCN(c3ccccc3)CC2)cc(Br)c2ccccc12 [4-Bromo-1-methoxy-naphthalene-2-carboxylic acid [2-(4-phenyl-piperazin-1-yl)-ethyl]-amide],0.024 µM,1.89 µM,
"COc1c(C(=O)NCCN2CCN(c3cccc(C)c3C)CC2)cc(Br)c2ccccc12 [4-Bromo-1-methoxy-naphthalene-2-carboxylic acid {2-[4-(2,3-dimethyl-phenyl)-piperazin-1-yl]-ethyl}-amide]",,1.17 µM,
CCOc1c(C(=O)NCCN2CCN(c3ccccc3)CC2)cc(Br)c2ccccc12 [4-Bromo-1-ethoxy-naphthalene-2-carboxylic acid [2-(4-phenyl-piperazin-1-yl)-ethyl]-amide],0.267 µM,> 10 µM,
COc1c(C(=O)NCCN2CCN(c3ccc([N+](=O)[O-])cc3)CC2)cc(Br)c2ccccc12 [4-Bromo-1-methoxy-naphthalene-2-carboxylic acid {2-[4-(4-nitro-phenyl)-piperazin-1-yl]-ethyl}-amide],0.731 µM,5.69 µM,
COc1c(C(=O)NCCN2CCN(c3ccccc3C)CC2)cc(Br)c2ccccc12 [4-Bromo-1-methoxy-naphthalene-2-carboxylic acid [2-(4-o-tolyl-piperazin-1-yl)-ethyl]-amide],0.066 µM,0.484 µM,> 1 µM
COc1c(C(=O)NCCN2CCN(c3ccccc3)CC2)cc(C#N)c2ccccc12 [4-Cyano-1-methoxy-naphthalene-2-carboxylic acid [2-(4-phenyl-piperazin-1-yl)-ethyl]-amide],0.131 µM,0.071 µM,
COc1c(C(=O)NCCN2CCN(c3ccc(Cl)cc3)CC2)cc(Br)c2ccccc12 [4-Bromo-1-methoxy-naphthalene-2-carboxylic acid {2-[4-(4-chloro-phenyl)-piperazin-1-yl]-ethyl}-amide],0.132 µM,,
COc1c(C(=O)NCCN2CCN(c3ccccc3)CC2)cc(Cl)c2ccccc12 [4-Chloro-1-methoxy-naphthalene-2-carboxylic acid [2-(4-phenyl-piperazin-1-yl)-ethyl]-amide],0.055 µM,2.53 µM,
COc1c(C(=O)NCCN2CCN(c3ccccc3[N+](=O)[O-])CC2)cc(Br)c2ccccc12 [4-Bromo-1-methoxy-naphthalene-2-carboxylic acid {2-[4-(2-nitro-phenyl)-piperazin-1-yl]-ethyl}-amide],0.024 µM,0.151 µM,
COc1c(C(=O)NCCN2CCN(c3cccc([N+](=O)[O-])c3)CC2)cc(Br)c2ccccc12 [4-Bromo-1-methoxy-naphthalene-2-carboxylic acid {2-[4-(3-nitro-phenyl)-piperazin-1-yl]-ethyl}-amide],0.652 µM,1.29 µM,
COc1c(C(=O)NCCN2CCN(c3ccc(C)cc3)CC2)cc(Br)c2ccccc12 [4-Bromo-1-methoxy-naphthalene-2-carboxylic acid [2-(4-p-tolyl-piperazin-1-yl)-ethyl]-amide],0.26 µM,0.996 µM,
COc1c(C(=O)NCCN2CCN(c3cccc(Cl)c3)CC2)cc(Br)c2ccccc12 [4-Bromo-1-methoxy-naphthalene-2-carboxylic acid {2-[4-(3-chloro-phenyl)-piperazin-1-yl]-ethyl}-amide],,0.703 µM,0.028 µM
COc1cccc(N2CCN(CCNC(=O)c3cc(Br)c4ccccc4c3OC)CC2)c1 [4-Bromo-1-methoxy-naphthalene-2-carboxylic acid {2-[4-(3-methoxy-phenyl)-piperazin-1-yl]-ethyl}-amide],0.652 µM,1.29 µM,
O=C(NCCN1CCN(c2ccccc2)CC1)c1cc(Br)c2ccccc2c1 [4-Bromo-naphthalene-2-carboxylic acid [2-(4-phenyl-piperazin-1-yl)-ethyl]-amide],> 10 µM,> 10 µM,
COc1ccc(N2CCN(CCNC(=O)c3cc(Br)c4ccccc4c3OC)CC2)cc1 [4-Bromo-1-methoxy-naphthalene-2-carboxylic acid {2-[4-(4-methoxy-phenyl)-piperazin-1-yl]-ethyl}-amide],0.731 µM,5.69 µM,
O=C(NCCN1CCN(c2ccccc2)CC1)c1cc(Br)c2ccccc2c1O [4-Bromo-1-hydroxy-naphthalene-2-carboxylic acid [2-(4-phenyl-piperazin-1-yl)-ethyl]-amide],> 10 µM,> 10 µM,
COc1c(C(=O)NCCN2CCN(c3ccccc3Cl)CC2)cc(Br)c2ccccc12 [4-Bromo-1-methoxy-naphthalene-2-carboxylic acid {2-[4-(2-chloro-phenyl)-piperazin-1-yl]-ethyl}-amide],0.039 µM,0.517 µM,0.083 µM
COc1c(C(=O)NCCN2CCN(c3ccccc3)CC2)ccc2ccccc12 [1-Methoxy-naphthalene-2-carboxylic acid [2-(4-phenyl-piperazin-1-yl)-ethyl]-amide],0.27 µM,7 µM,
COc1c(C(=O)NCCN2CCN(c3cccc(C)c3)CC2)cc(Br)c2ccccc12 [4-Bromo-1-methoxy-naphthalene-2-carboxylic acid [2-(4-m-tolyl-piperazin-1-yl)-ethyl]-amide],0.339 µM,1.21 µM,
